In brackets after ≈: the same amount, converted by molar mass. Like-named read-outs stand apart in the source and are kept apart here.
How the values were obtained:
Mycobacterium abscessus = test: M. ab_ATCC MIC MHII; format: cell-based; conditions: Mycobacteroides abscessus; read-out: M. ab_ATCC: MIC MHII: MIC
Description: The procedure described in Franz 2017 was used to generate the data shown in column 5 of Table 4.

M. tb H37Rv [1] = test: microbe, parasite or virus in culture; format: cell-based, Mycobacterium tuberculosis; conditions: Mycobacterium tuberculosis, H37RV; read-out: M. tb H37Rv: MIC-MABA
M. tb H37Rv [2] = test: microbe, parasite or virus in culture; format: cell-based; conditions: Mycobacterium tuberculosis; for MIC: read-out: M. tb H37Rv: MIC-LORA; for inhibition at 20 µg/mL: at 20 μg/mL, read-out: M. tb H37Rv: MIC-LORA: Comment (% inhibition)
VERO cell cytotoxicity = format: cell-based; conditions: African green monkey, VERO cells
Description: The procedures described in Falzari 2005 were used to generate the data shown in column 2 of Table 4.

hERG = hERG (Homo sapiens, UniProt Q12809); test: biochemical
[3] = QTc (QTcV) prolongation in dogs after oral dosing, with plasma level at 1 hr; conditions: for concentration at 1 h: dog, plasma, po; for Max. QTcv / C1 hr / QTcV @ 1 hr: PO; for C1 hr / QTcV @ 1 hr: 1 hr
hKCNQ1/MinK = hKCNQ1/MinK (Homo sapiens, UniProt P51787); test: biochemical; format: biochemical
hNav1.5 Late = hNav1.5 Late (Homo sapiens, UniProt Q14524); test: In vitro assessment of ion channels: hNav1.5 Late; format: biochemical; conditions: read-out: hNav1.05 Late IC50
hCav1.2 = hCav1.2 (Homo sapiens, UniProt Q13936); test: biochemical
hNav1.5 Peak = hNav1.5 Peak (Homo sapiens, UniProt Q14524); test: In vitro assessment of ion channels: hNav1.5 Peak; format: biochemical

hERG, sequence (Q12809 whole entry): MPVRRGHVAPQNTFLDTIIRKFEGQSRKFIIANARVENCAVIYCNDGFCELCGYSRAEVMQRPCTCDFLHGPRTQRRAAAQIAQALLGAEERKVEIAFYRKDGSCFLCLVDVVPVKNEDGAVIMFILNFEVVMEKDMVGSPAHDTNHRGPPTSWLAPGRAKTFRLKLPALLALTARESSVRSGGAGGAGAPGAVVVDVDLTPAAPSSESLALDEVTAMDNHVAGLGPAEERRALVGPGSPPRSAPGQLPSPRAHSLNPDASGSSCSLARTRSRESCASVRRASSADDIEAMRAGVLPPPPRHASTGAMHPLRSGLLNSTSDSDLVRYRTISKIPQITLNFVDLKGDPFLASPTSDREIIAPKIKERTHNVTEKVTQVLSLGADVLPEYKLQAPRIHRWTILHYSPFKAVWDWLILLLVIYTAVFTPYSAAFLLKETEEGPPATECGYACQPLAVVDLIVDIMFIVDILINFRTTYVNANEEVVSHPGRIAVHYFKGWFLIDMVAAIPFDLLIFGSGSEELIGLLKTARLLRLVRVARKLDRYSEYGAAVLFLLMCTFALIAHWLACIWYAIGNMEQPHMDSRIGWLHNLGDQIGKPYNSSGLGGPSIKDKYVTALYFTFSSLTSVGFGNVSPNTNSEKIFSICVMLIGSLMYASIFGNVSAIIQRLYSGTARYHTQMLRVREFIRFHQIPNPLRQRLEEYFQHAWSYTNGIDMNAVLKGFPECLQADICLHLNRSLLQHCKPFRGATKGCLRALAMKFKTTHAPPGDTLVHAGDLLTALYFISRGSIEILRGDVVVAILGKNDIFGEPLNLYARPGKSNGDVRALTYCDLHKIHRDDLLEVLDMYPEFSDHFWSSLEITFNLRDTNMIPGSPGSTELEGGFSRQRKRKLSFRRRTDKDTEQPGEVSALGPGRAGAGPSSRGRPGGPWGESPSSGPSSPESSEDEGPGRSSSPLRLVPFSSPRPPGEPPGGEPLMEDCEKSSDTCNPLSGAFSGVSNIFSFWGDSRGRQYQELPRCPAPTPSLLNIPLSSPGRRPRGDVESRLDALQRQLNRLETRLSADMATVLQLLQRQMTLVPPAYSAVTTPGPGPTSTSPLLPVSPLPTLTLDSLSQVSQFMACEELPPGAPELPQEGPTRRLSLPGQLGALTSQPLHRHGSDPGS
hCav1.2, sequence (Q13936 whole entry): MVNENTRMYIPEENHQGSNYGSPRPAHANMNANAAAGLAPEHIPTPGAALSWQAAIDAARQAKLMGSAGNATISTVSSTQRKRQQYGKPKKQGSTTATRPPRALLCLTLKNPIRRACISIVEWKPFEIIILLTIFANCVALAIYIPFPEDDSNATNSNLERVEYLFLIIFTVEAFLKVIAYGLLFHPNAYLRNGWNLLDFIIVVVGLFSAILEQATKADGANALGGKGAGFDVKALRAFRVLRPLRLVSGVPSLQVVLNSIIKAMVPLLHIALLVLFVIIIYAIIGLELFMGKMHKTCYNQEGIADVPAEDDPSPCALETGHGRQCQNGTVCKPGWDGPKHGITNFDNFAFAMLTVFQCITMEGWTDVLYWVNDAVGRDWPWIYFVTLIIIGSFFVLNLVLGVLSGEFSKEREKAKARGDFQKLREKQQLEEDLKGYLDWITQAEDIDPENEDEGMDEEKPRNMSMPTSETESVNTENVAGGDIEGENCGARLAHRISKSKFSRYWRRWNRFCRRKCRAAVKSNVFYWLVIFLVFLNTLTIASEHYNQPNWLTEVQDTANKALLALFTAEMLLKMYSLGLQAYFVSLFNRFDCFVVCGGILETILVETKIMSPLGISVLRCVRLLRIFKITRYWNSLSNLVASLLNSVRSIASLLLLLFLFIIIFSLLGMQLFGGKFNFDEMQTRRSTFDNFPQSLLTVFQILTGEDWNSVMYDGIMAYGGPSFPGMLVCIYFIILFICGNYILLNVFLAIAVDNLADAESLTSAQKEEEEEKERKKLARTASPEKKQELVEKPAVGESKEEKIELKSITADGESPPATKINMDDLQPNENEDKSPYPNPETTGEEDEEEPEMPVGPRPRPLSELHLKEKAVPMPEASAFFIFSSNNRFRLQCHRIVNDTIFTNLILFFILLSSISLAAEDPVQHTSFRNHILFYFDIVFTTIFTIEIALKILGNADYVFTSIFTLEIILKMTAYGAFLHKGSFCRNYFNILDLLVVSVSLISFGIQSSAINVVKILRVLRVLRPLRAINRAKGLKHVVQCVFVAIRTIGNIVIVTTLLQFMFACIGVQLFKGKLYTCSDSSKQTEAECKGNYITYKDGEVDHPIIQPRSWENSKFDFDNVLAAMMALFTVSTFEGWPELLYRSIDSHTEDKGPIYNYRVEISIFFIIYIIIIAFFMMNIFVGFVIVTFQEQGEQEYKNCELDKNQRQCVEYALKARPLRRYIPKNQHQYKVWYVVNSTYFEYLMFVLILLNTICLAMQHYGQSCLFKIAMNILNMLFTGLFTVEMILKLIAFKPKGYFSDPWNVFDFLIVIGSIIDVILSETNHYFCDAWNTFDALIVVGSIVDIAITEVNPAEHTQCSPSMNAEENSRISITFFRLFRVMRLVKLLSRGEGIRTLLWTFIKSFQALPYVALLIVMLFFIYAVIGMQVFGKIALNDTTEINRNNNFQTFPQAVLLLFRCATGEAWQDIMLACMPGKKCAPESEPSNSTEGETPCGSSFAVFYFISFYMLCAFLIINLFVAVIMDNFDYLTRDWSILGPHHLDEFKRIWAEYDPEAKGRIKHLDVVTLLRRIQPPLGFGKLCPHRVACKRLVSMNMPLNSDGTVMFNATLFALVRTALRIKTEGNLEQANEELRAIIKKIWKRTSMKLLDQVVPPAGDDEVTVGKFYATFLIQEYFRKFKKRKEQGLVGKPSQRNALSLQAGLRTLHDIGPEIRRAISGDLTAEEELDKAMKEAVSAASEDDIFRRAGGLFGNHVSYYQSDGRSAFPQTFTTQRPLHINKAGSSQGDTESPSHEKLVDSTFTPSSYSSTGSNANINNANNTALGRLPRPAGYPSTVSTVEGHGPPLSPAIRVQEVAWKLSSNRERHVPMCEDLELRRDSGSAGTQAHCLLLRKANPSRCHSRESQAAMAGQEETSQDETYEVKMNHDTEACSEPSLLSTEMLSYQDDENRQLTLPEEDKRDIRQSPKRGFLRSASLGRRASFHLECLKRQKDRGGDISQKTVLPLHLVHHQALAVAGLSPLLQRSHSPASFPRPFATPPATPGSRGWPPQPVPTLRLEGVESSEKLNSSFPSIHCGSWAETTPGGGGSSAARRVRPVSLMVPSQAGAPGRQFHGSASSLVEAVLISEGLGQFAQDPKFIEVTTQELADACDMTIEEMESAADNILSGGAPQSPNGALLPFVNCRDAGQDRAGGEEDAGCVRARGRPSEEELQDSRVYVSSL
hCav1.2, sequence (Q08289 whole entry partner): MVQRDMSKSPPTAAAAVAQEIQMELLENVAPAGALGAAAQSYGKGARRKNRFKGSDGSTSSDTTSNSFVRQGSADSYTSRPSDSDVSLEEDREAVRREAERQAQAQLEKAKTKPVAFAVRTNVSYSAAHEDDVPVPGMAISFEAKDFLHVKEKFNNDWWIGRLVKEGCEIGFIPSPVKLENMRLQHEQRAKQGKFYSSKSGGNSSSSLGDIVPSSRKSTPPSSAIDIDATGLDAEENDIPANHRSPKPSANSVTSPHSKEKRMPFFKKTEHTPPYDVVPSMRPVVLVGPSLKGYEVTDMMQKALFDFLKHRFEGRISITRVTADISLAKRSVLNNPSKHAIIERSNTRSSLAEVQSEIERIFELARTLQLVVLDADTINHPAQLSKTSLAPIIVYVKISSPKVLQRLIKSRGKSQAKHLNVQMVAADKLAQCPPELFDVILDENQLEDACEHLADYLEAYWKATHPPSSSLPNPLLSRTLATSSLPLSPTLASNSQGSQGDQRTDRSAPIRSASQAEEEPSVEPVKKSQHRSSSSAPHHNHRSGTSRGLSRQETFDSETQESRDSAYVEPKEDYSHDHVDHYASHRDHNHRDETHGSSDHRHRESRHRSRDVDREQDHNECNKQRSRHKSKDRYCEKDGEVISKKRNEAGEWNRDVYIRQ
hCav1.2, sequence (P54289 25-946 partner limits assumed): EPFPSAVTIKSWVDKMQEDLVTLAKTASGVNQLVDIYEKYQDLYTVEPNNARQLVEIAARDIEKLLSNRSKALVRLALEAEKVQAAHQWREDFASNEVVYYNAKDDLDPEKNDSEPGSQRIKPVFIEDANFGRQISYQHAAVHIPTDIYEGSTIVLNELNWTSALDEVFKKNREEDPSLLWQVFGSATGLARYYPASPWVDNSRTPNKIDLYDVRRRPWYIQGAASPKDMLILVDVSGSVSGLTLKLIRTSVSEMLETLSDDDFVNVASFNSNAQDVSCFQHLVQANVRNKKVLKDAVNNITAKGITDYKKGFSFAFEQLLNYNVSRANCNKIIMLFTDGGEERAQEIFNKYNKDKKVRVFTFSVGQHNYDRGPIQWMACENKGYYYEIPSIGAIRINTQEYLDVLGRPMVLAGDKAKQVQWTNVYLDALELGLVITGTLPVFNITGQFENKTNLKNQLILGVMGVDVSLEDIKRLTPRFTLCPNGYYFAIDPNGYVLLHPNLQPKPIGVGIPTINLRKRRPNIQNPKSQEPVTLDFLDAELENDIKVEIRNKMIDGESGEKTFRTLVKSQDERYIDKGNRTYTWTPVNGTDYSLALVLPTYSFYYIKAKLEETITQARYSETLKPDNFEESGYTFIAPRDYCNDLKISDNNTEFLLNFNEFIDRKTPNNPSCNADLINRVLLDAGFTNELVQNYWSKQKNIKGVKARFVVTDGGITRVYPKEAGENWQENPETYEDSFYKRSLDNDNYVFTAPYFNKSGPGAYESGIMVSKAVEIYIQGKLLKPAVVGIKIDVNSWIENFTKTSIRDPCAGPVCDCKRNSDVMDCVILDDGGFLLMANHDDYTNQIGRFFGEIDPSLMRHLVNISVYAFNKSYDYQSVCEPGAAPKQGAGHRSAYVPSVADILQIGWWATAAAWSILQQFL
hCav1.2, sequence (P54289 947-1103 partner limits assumed): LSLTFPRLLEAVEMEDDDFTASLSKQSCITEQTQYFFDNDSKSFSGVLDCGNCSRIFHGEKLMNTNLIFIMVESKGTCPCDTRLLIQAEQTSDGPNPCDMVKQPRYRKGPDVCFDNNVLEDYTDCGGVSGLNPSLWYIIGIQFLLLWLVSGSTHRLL

Row | Structure (SMILES) | MIC (Mycobacterium abscessus) [µg/mL] | MIC (M. tb H37Rv [1]) [µg/mL] | MIC (M. tb H37Rv [2]) [µg/mL] | IC50 (VERO cell cytotoxicity) [µg/mL] | also measured
1 | Cc1cc(C(F)(F)F)c2cc(C(=O)NC3CCC[Si](C)(C)CCC3)[nH]c2c1 [MPL-386, N-(1,1-dimethylsilocan-5-yl)-6-methyl-4-(trifluoromethyl)-1H-indole-2-carboxamide] | > 64 | < 0.004 | > 20 | > 20 | –
2 | Cc1cc(C)c2cc(C(=O)NC3CC[Si]4(CCCC4)CC3)[nH]c2c1 [MPL-264, 4,6-dimethyl-N-(5-silaspiro[4.5]decan-8-yl)-1H-indole-2-carboxamide] | 64 (≈ 188 µM) | 0.011 (≈ 0.0323 µM) | > 20 | > 20 | inhibition at 20 µg/mL (M. tb H37Rv [2]): 85%
3 | Cc1cc(C(F)(F)F)c2cc(C(=O)NC3CC[Si](C)(C)CC3)[nH]c2c1 [MPL-385, N-(1,1-dimethylsilinan-4-yl)-6-methyl-4-(trifluoromethyl)-1H-indole-2-carboxamide] | 64 (≈ 174 µM) | < 0.004 | 12.7 (≈ 34.5 µM) | > 20 | –
4 | CC1(C)CCC(NC(=O)c2cc3c(Cl)cc(Cl)cc3[nH]2)CC1 [NITD-304] | – | – | – | – | IC50 (hERG; hERG IC50, Table 2): > 10 µM; IC50 (hERG; hERG IC50, Table 3): > 10 µM; IC50 (hERG; hERG IC50, stated in text): > 50 µM; concentration at 1 h ([3]; 150 mg/kg): 300 ng/mL; corrected QT (QTc) prolongation in dogs ([3]; dogs): dramatic corrected QT (QTc) prolongation; Max. QTcv ([3]; dogs, 50 mg/kg): 49 ms; C1 hr ([3]; dogs, 50 mg/kg): 250 ng/mL; QTcV @ 1 hr ([3]; dogs, 50 mg/kg): -0.6 ms; Max. QTcv ([3]; dogs, 150 mg/kg): 120 ms; QTcV @ 1 hr ([3]; dogs, 150 mg/kg): 0.3 ms; IC50 (hKCNQ1/MinK): 0.71 µM; IC50 (hNav1.5 Late): 6.4 µM; IC50 (hCav1.2; Table 2): 2.01 µM; IC50 (hCav1.2; Table 3): 2.01 µM; IC50 (hNav1.5 Peak): > 10 µM
5 | Cc1cc(C#N)cc2[nH]c(C(=O)NC3CC[Si](C)(C)CC3)cc12 [MPL-340, 6-cyano-N-(1,1-dimethylsilinan-4-yl)-4-methyl-1H-indole-2-carboxamide] | > 64 | < 0.004 | > 20 | > 20 | –
6 | Cc1cc(Br)cc2[nH]c(C(=O)NC3CC[Si](C)(C)CC3)cc12 [MPL-338, 6-bromo-N-(1,1-dimethylsilinan-4-yl)-4-methyl-1H-indole-2-carboxamide] | > 64 | < 0.004 | > 20 | > 20 | –
7 | O=C(NC1CC[Si]2(CCCCC2)CC1)c1cc2c(F)cc(F)cc2[nH]1 [MPL-256, 4,6-difluoro-N-(6-silaspiro[5.5]undecan-3-yl)-1H-indole-2-carboxamide] | > 64 | 0.0041 (≈ 0.0113 µM) | 3.4 (≈ 9.38 µM) | > 20 | –
8 | Cc1c(C(=O)NC2CC[Si](C)(C)CC2)[nH]c2cc(F)cc(F)c12 [MPL-335, N-(1,1-dimethylsilinan-4-yl)-4,6-difluoro-3-methyl-1H-indole-2-carboxamide] | > 64 | < 0.004 | > 20 | > 20 | –
9 | COc1cc(F)cc2[nH]c(C(=O)NC3CC[Si](C)(C)CC3)cc12 [MPL-196, N-(1,1-dimethylsilinan-4-yl)-6-fluoro-4-methoxy-1H-indole-2-carboxamide] | > 64 | 0.0048 (≈ 0.0144 µM) | > 32 | > 32 | –
10 | Cc1cc(C#N)c2cc(C(=O)NC3CC[Si](C)(C)CC3)[nH]c2c1 [MPL-344, 4-cyano-N-(1,1-dimethylsilinan-4-yl)-6-methyl-1H-indole-2-carboxamide] | > 64 | 0.008 (≈ 0.0246 µM) | > 20 | > 20 | –
11 | C[C@@H]1C(NC(=O)c2cc3c(F)cc(F)cc3[nH]2)CC2C[C@@H]1C2(C)C (stereo partly drawn) [JS-2-02] | – | – | – | – | IC50 (hERG; hERG IC50, Table 2): > 10 µM; concentration at 1 h ([3]; 50 mg/kg): 1200 ng/mL; Max. QTcv ([3]; dogs, 50 mg/kg): 6.8 ms; QTcV @ 1 hr ([3]; dogs, 50 mg/kg): 1.2 ms; Max. QTcv ([3]; dogs, 150 mg/kg): 37 ms; C1 hr ([3]; dogs, 150 mg/kg): 1100 ng/mL; QTcV @ 1 hr ([3]; dogs, 150 mg/kg): 2.8 ms; IC50 (hKCNQ1/MinK; Table 2): 6.2 µM; IC50 (hNav1.5 Late; Table 2): > 10 µM; IC50 (hCav1.2; Table 2): > 10 µM; IC50 (hNav1.5 Peak; Table 2): 5.17 µM
12 | C[Si]1(C)CCCC(NC(=O)c2cc3c(F)cc(F)cc3[nH]2)CC1 (stereo not drawn) [MPL-286, N-(1,1-dimethylsilepan-4-yl)-4,6-difluoro-1H-indole-2-carboxamide] | > 64 | 0.0044 (≈ 0.0131 µM) | 7.9 (≈ 23.5 µM) | > 20 | –
13 | Cc1cc(Br)c2cc(C(=O)NC3CC[Si](C)(C)CC3)[nH]c2c1 [MPL-337, 4-bromo-N-(1,1-dimethylsilinan-4-yl)-6-methyl-1H-indole-2-carboxamide] | > 64 | 0.007 (≈ 0.0185 µM) | > 20 | > 20 | –
14 | C[Si]1(C)CCC(NC(=O)c2cc3c(Cl)cc(Cl)cc3[nH]2)C1 (racemic) [MPL-399, 4,6-dichloro-N-(1,1-dimethylsilolan-3-yl)-1H-indole-2-carboxamide] | 0.062 (≈ 0.182 µM) | < 0.004 | 7.81 (≈ 22.9 µM) | > 20 | –
15 | Cc1cc(C)c2cc(C(=O)NC3CCC[Si](C)(C)CCC3)[nH]c2c1 [MPL-303, N-(1,1-dimethylsilocan-5-yl)-4,6-dimethyl-1H-indole-2-carboxamide] | 4 (≈ 11.7 µM) | < 0.004 | 4.23 (≈ 12.3 µM) | > 20 | –
16 | C[Si]1(C)CCC(NC(=O)c2cc3c(C(F)(F)F)cc(C(F)(F)F)cc3[nH]2)C1 (stereo not drawn) [MPL-327, N-(1,1-dimethylsilolan-3-yl)-4,6-bis(trifluoromethyl)-1H-indole-2-carboxamide] | > 64 | 0.00752 (≈ 0.0184 µM) | > 20 | > 20 | –
17 | C[Si]1(C)CCCCC(NC(=O)c2cc3c(C(F)(F)F)cc(C(F)(F)F)cc3[nH]2)CC1 (stereo not drawn) [MPL-325, N-(1,1-dimethylsilocan-4-yl)-4,6-bis(trifluoromethyl)-1H-indole-2-carboxamide] | > 64 | 0.0305 (≈ 0.0677 µM) | > 20 | 16.4 (≈ 36.4 µM) | –
18 | C[Si]1(C)CCC(NC(=O)c2cc3c(Br)cc(C(F)(F)F)cc3[nH]2)CC1 [MPL-339, 4-bromo-N-(1,1-dimethylsilinan-4-yl)-6-(trifluoromethyl)-1H-indole-2-carboxamide] | > 64 | < 0.004 | > 20 | > 20 | –
19 | Cc1cc(C)c2cc(C(=O)NC3CC[Si]4(CCCCC4)CC3)[nH]c2c1 [MPL-265, 4,6-dimethyl-N-(6-silaspiro[5.5]undecan-3-yl)-1H-indole-2-carboxamide] | > 64 | 0.014 (≈ 0.0395 µM) | > 20 | > 20 | inhibition at 20 µg/mL (M. tb H37Rv [2]): 84%
20 | O=C(NC1CC[Si]2(CCCC2)CC1)c1cc2c(F)cc(F)cc2[nH]1 [MPL-251, 4,6-difluoro-N-(5-silaspiro[4.5]decan-8-yl)-1H-indole-2-carboxamide] | > 64 | 0.0043 (≈ 0.0123 µM) | 7 (≈ 20.1 µM) | > 20 | –
21 | C[Si]1(C)CCC(NC(=O)c2cc3c(F)cc(F)cc3[nH]2)C1 (stereo not drawn) [MPL-400, N-(1,1-dimethylsilolan-3-yl)-4,6-difluoro-1H-indole-2-carboxamide] | > 64 | 0.0113 (≈ 0.0366 µM) | > 20 | > 20 | –
22 | COCCOc1cc(F)cc2[nH]c(C(=O)NC3CC[Si](C)(C)CC3)cc12 [MPL-384, N-(1,1-dimethylsilinan-4-yl)-6-fluoro-4-(2-methoxyethoxy)-1H-indole-2-carboxamide] | > 64 | 0.0308 (≈ 0.0814 µM) | 9.36 (≈ 24.7 µM) | > 20 | –

Source: patent publication US20230040909A1 (priority 2019, published 2023)
